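Assay format: 96-well plates, 48-hour exposure. The concentration for 50% growth inhibition is given as GI50.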 Active and inactive are the calls of the source. No stated cut-off is given here; in the data, active = GI50 up to about 1.1 µM and inactive = higher.
What was measured:
Assay in all cases: NCI tumour cell line growth inhibition, 48 h
SF-268 = test system: SF-268
OVCAR-5 = test system: OVCAR-5
M14 = test system: M14
TK-10 = test system: TK-10
SNB-75 = test system: SNB-75
CCRF-CEM = test system: CCRF-CEM
ACHN = test system: ACHN
MDA-MB-435 = test system: MDA-MB-435
MOLT-4 = test system: MOLT-4
RXF 393 = test system: RXF 393
NCI-H23 = test system: NCI-H23
LOX IMVI = test system: LOX IMVI
NCI-H460 = test system: NCI-H460
HL-60 = test system: HL-60
SF-539 = test system: SF-539
OVCAR-4 = test system: OVCAR-4
A498 = test system: A498
NCI-H522 = test system: NCI-H522
HCT-116 = test system: HCT-116
BT-549 = test system: BT-549

SMILES	GI50 (SF-268)	GI50 (OVCAR-5)	GI50 (M14)	GI50 (TK-10)	GI50 (SNB-75)	GI50 (CCRF-CEM)	GI50 (ACHN)	GI50 (MDA-MB-435)	GI50 (MOLT-4)	GI50 (RXF 393)	GI50 (NCI-H23)	GI50 (LOX IMVI)	GI50 (NCI-H460)	GI50 (HL-60)	GI50 (SF-539)	GI50 (OVCAR-4)	GI50 (A498)	GI50 (NCI-H522)	GI50 (HCT-116)	GI50 (BT-549)
CC[C@]1(Cc2ccc(OC)c(OC)c2)CN(S(=O)(=O)c2ccc(C)cc2)C[C@@H]1OC(C)=O	> 100 µM (inactive)	> 100 µM (inactive)	> 100 µM (inactive)	> 100 µM (inactive)	41.9 µM (inactive)	> 100 µM (inactive)	> 100 µM (inactive)	> 100 µM (inactive)	> 100 µM (inactive)	> 100 µM (inactive)	> 100 µM (inactive)	> 100 µM (inactive)	> 100 µM (inactive)	> 100 µM (inactive)	69.5 µM (inactive)	> 100 µM (inactive)	> 100 µM (inactive)	–	–	–
CC(=O)NNc1nc(C)c(C(/C=C/c2ccc(Cl)cc2)=N/NC(=S)NN)s1	> 100 µM (inactive)	> 100 µM (inactive)	> 100 µM (inactive)	> 100 µM (inactive)	> 100 µM (inactive)	> 100 µM (inactive)	> 100 µM (inactive)	–	> 100 µM (inactive)	> 100 µM (inactive)	> 100 µM (inactive)	> 100 µM (inactive)	> 100 µM (inactive)	> 100 µM (inactive)	> 100 µM (inactive)	> 100 µM (inactive)	> 100 µM (inactive)	> 100 µM (inactive)	> 100 µM (inactive)	–
CN(C)/N=N/c1ccc(C(N)=O)cc1	> 100 µM (inactive)	> 100 µM (inactive)	> 100 µM (inactive)	> 100 µM (inactive)	97.7 µM (inactive)	> 100 µM (inactive)	> 100 µM (inactive)	–	> 100 µM (inactive)	> 100 µM (inactive)	> 100 µM (inactive)	> 100 µM (inactive)	> 100 µM (inactive)	> 100 µM (inactive)	> 100 µM (inactive)	> 100 µM (inactive)	> 100 µM (inactive)	> 100 µM (inactive)	> 100 µM (inactive)	–
CC1=NN(C(=O)c2ccccc2O)C(=O)/C1=C/c1cccc([N+](=O)[O-])c1	1.25 µM (inactive)	10.4 µM (inactive)	2.37 µM (inactive)	15.6 µM (inactive)	0.449 µM (active)	2.77 µM (inactive)	0.528 µM (active)	0.451 µM (active)	–	0.189 µM (active)	0.753 µM (active)	0.695 µM (active)	0.658 µM (active)	1.22 µM (inactive)	0.377 µM (active)	3.55 µM (inactive)	0.164 µM (active)	3.99 µM (inactive)	0.463 µM (active)	–
CC(C)=Cc1cc(C(=O)NCCNC(=O)c2cc(C=C(C)C)nc(NC#N)n2)nc(NC#N)n1	> 100 µM (inactive)	> 100 µM (inactive)	> 100 µM (inactive)	> 100 µM (inactive)	> 100 µM (inactive)	> 100 µM (inactive)	> 100 µM (inactive)	–	> 100 µM (inactive)	> 100 µM (inactive)	> 100 µM (inactive)	> 100 µM (inactive)	> 100 µM (inactive)	> 100 µM (inactive)	> 100 µM (inactive)	> 100 µM (inactive)	> 100 µM (inactive)	> 100 µM (inactive)	> 100 µM (inactive)	–
CC[C@H]1C[C@@H](O)[C@@H]2[C@H](O)[C@H](O)CN2C1	> 100 µM (inactive)	> 100 µM (inactive)	> 100 µM (inactive)	> 100 µM (inactive)	> 100 µM (inactive)	> 100 µM (inactive)	> 100 µM (inactive)	> 100 µM (inactive)	> 100 µM (inactive)	–	–	> 100 µM (inactive)	> 100 µM (inactive)	> 100 µM (inactive)	> 100 µM (inactive)	> 100 µM (inactive)	–	> 100 µM (inactive)	> 100 µM (inactive)	–
CC(C)C(Sc1nc(-c2ccccc2)c(-c2ccccc2)[nH]1)C(=O)NN (stereo unspecified)	> 100 µM (inactive)	> 100 µM (inactive)	> 100 µM (inactive)	92.5 µM (inactive)	> 100 µM (inactive)	31.6 µM (inactive)	> 100 µM (inactive)	–	49.7 µM (inactive)	31.6 µM (inactive)	> 100 µM (inactive)	> 100 µM (inactive)	97.5 µM (inactive)	31.6 µM (inactive)	> 100 µM (inactive)	> 100 µM (inactive)	> 100 µM (inactive)	74.8 µM (inactive)	> 100 µM (inactive)	–
O=c1c2cccc3cccc(c4n1CCCN=4)c32	> 100 µM (inactive)	88.1 µM (inactive)	> 100 µM (inactive)	47.5 µM (inactive)	> 100 µM (inactive)	41.6 µM (inactive)	> 100 µM (inactive)	–	35.7 µM (inactive)	> 100 µM (inactive)	> 100 µM (inactive)	20.1 µM (inactive)	> 100 µM (inactive)	47.5 µM (inactive)	> 100 µM (inactive)	> 100 µM (inactive)	> 100 µM (inactive)	> 100 µM (inactive)	31 µM (inactive)	–
O=C1c2ccccc2-c2cc3ccccc3c(=O)n21	> 100 µM (inactive)	> 100 µM (inactive)	97.3 µM (inactive)	> 100 µM (inactive)	> 100 µM (inactive)	> 100 µM (inactive)	> 100 µM (inactive)	> 100 µM (inactive)	–	–	> 100 µM (inactive)	> 100 µM (inactive)	> 100 µM (inactive)	–	> 100 µM (inactive)	–	–	15.5 µM (inactive)	> 100 µM (inactive)	–
COc1ccc(C2=NN(C(=O)c3ccc(Cl)cc3)C(O)(c3cc(F)c(Cl)cc3Cl)C2)cc1OC (stereo unspecified)	21.2 µM (inactive)	> 100 µM (inactive)	12.5 µM (inactive)	86.7 µM (inactive)	–	1.99 µM (inactive)	14.9 µM (inactive)	13.2 µM (inactive)	4.13 µM (inactive)	6.17 µM (inactive)	47.1 µM (inactive)	37.9 µM (inactive)	9.14 µM (inactive)	0.495 µM (active)	> 100 µM (inactive)	18 µM (inactive)	5.2 µM (inactive)	6.68 µM (inactive)	6.14 µM (inactive)	–
CCOC(=O)C(/C(=N/NC(=O)OC)C(=O)Nc1ccc(C(C)=O)cc1)c1cnc2ccccc2n1 (stereo unspecified)	> 100 µM (inactive)	> 100 µM (inactive)	> 100 µM (inactive)	> 100 µM (inactive)	90.8 µM (inactive)	> 100 µM (inactive)	> 100 µM (inactive)	–	–	> 100 µM (inactive)	> 100 µM (inactive)	> 100 µM (inactive)	> 100 µM (inactive)	> 100 µM (inactive)	> 100 µM (inactive)	> 100 µM (inactive)	> 100 µM (inactive)	> 100 µM (inactive)	> 100 µM (inactive)	–
CCN(CC)c1cc2c3c(c1)CCCN3CCC2	> 10 µM (inactive)	–	> 10 µM (inactive)	> 10 µM (inactive)	> 10 µM (inactive)	> 10 µM (inactive)	> 10 µM (inactive)	> 10 µM (inactive)	> 10 µM (inactive)	> 10 µM (inactive)	> 10 µM (inactive)	> 10 µM (inactive)	> 10 µM (inactive)	> 10 µM (inactive)	> 10 µM (inactive)	> 10 µM (inactive)	> 10 µM (inactive)	> 10 µM (inactive)	> 10 µM (inactive)	–
COC(=O)/C(=N\NC(N)=S)C(C(=O)OC)C(=O)C(=O)Nc1ccc(C)cc1 (stereo unspecified)	> 100 µM (inactive)	> 100 µM (inactive)	> 100 µM (inactive)	> 100 µM (inactive)	41.9 µM (inactive)	> 100 µM (inactive)	> 100 µM (inactive)	–	> 100 µM (inactive)	> 100 µM (inactive)	> 100 µM (inactive)	> 100 µM (inactive)	> 100 µM (inactive)	> 100 µM (inactive)	> 100 µM (inactive)	> 100 µM (inactive)	> 100 µM (inactive)	> 100 µM (inactive)	> 100 µM (inactive)	–
CNC(=O)c1nnn(C2CCCCC2)c1S	> 100 µM (inactive)	> 100 µM (inactive)	> 100 µM (inactive)	–	> 100 µM (inactive)	> 100 µM (inactive)	> 100 µM (inactive)	> 100 µM (inactive)	> 100 µM (inactive)	> 100 µM (inactive)	> 100 µM (inactive)	> 100 µM (inactive)	> 100 µM (inactive)	> 100 µM (inactive)	6.11 µM (inactive)	> 100 µM (inactive)	> 100 µM (inactive)	> 100 µM (inactive)	> 100 µM (inactive)	–
c1ccc2cc3c(NC4=NCCO4)cccc3cc2c1	34.2 µM (inactive)	> 100 µM (inactive)	34.3 µM (inactive)	86.9 µM (inactive)	24.8 µM (inactive)	27.7 µM (inactive)	68.1 µM (inactive)	37.1 µM (inactive)	31.1 µM (inactive)	> 100 µM (inactive)	32.9 µM (inactive)	29.8 µM (inactive)	29 µM (inactive)	25.9 µM (inactive)	97.5 µM (inactive)	35.6 µM (inactive)	67.6 µM (inactive)	> 100 µM (inactive)	50 µM (inactive)	–
N#C/C(=C\c1cc(Cl)cc(Cl)c1)c1ccccn1	27.7 µM (inactive)	> 100 µM (inactive)	35.5 µM (inactive)	58.5 µM (inactive)	5.55 µM (inactive)	3.63 µM (inactive)	64.1 µM (inactive)	–	5.14 µM (inactive)	5.11 µM (inactive)	6.35 µM (inactive)	–	7.83 µM (inactive)	6.27 µM (inactive)	19.1 µM (inactive)	53 µM (inactive)	0.757 µM (active)	9.44 µM (inactive)	34.3 µM (inactive)	4.71 µM (inactive)
